Laboratory results reported in BindingDB's records for doi:10.1016/j.bmcl.2019.06.049 (Dongguk University, 2019).

Target: T1, Nuclear factor erythroid 2-related factor 2 (Homo sapiens, UniProt Q16236)
T1 sequence (Q16236 whole entry): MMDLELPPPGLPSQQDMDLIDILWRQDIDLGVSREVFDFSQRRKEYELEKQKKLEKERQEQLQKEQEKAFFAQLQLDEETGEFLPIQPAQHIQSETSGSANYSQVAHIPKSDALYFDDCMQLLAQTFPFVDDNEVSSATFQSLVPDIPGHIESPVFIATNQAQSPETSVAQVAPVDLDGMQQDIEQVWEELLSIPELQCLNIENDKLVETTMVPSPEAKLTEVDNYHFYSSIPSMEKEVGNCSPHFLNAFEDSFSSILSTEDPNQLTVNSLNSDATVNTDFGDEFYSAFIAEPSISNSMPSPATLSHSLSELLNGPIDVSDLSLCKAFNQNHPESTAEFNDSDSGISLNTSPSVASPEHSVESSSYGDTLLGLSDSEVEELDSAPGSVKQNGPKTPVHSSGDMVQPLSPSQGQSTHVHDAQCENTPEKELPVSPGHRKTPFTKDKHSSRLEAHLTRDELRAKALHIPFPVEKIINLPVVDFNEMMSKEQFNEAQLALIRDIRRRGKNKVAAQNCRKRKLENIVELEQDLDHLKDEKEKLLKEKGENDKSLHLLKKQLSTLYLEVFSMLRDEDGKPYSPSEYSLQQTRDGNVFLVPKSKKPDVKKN
Assay: Inhibition of NRF2 in human MDA-MB-231 cells harboring ARE-GFP-Luc assessed as reduction in ARE-luciferase activity after 16 hrs by firefly luciferase reporter gene assay

IC50: 29 nM
SMILES: COC(=O)[C@@]12OC[C@]34[C@H]([C@@H](O)[C@@H]1O)[C@@]1(C)CC(=O)C(O)=C(C)[C@@H]1C[C@H]3OC(=O)[C@H](OC(=O)C=C(C)C)[C@@H]24
